Assay results from patent US7202023B2 (priority 2000, dated 2007).
Values after ≈ are worked out from the molar mass of the structure shown.

Key:
[1] = test system: panBCD operon (panB promoter); assay: RNA (transcriptional) profiling of panB, panC, panD mRNA levels in treated bacterial cells; format: cell-based, B. subtilis; conditions: LB medium, 37° C.
[2] = test system: B. subtilis reporter strain PY79(amy::PpanB::lacZ, cat); assay: Minimum inhibitory concentration (MIC) in 96-well microtiter plate, OD600 after about 18 hours; format: cell-based; conditions: Bacillus subtilis
Description: The minimum inhibitory concentrations (MIC) for trimethoprim and sulfamethoxazole were determined for each of the reporter strains. To determine the MIC, a compound of interest (e.g., trimethoprim or sulfamethoxazole) was placed in a 96-well microtiter plate such that the concentration of the compound varies in various wells of the plate (e.g., by using a series of 2-fold dilutions of the compound). Approximately 5,000 cells from a logarithmically-growing culture (e.g., the B. subtilis strain PY79) in Luria broth were added to each well (e.g., in a volume of 50–80 μl). The plate then was incubated at 37° C. for approximately 18 hours. The OD600 was then read to measure cell growth in each well of the plate. The lowest concentration of the compound that leads to complete killing of the culture (i.e., the concentration of compound for which the OD600 nm is equal to a control well that contains only media and the test compound) is deemed the MIC for the particular compound and bacterial strain.

PABA uptake = conditions: 14C-PABA, Herrington (1994) Anal Biochem 216:427–430; cited from earlier work
[3] = 10 μg/ml trimethoprim, 90 minutes

Compound | panD mRNA levels induced ([1]; 0.5 mg/ml sulfamethoxazole, 80 minutes) [fold] | MIC [2] [µg/mL] | PABA uptake (PABA uptake) | panB mRNA levels induced [1, 3] [fold] | panC mRNA levels induced [1, 3] [fold] | panD mRNA levels induced [1, 3] [fold]
Cc1cc(NS(=O)(=O)c2ccc(N)cc2)no1 [sulfamethoxazole] | 148 | 500 (≈ 1970 µM) |  |  |  | 
Nc1ccc(S(=O)(=O)Nc2nccs2)cc1 [sulfathiazole] |  |  | inhibited |  |  | 
COc1cc(Cc2cnc(N)nc2N)cc(OC)c1OC [trimethoprim] |  | 3 (≈ 10.3 µM) | inhibited | 10 | 54 | 38
